Values of other authors in patent US8680078B2, “Stable ophthalmic formulations” (Medivis SRL, priority 2008, dated 2014).
Where two headings read alike, the source gives them in different places.

Columns and labels:
[1] = pH of 5.6

maximum solubility [1] | SMILES | time taken by the concentration of latanoprost to drop to 90% of an initial content (50° C.) | time taken by the concentration of latanoprost to drop to 90% of an initial content (75° C.)
 | CC(C)OC(=O)CCC/C=C\C[C@@H]1[C@@H](CC[C@@H](O)CCc2ccccc2)[C@H](O)C[C@@H]1O [Latanoprost, latanoprost] | 198 h | 32 h
about 50 mg/mL | CCN[C@H]1C[C@H](C)S(=O)(=O)c2sc(S(N)(=O)=O)cc21.Cl [dorzolamide hydrochloride] |  | 
